Results from paper PMC5041982, “Small-molecule inhibition of STAT3 in radioresistant head and neck squamous cell carcinoma” (Oncotarget, 2016).
Where two headings read alike, the source gives them in different places.

Key:
STAT3 [1] = molecular target: T1, STAT3 (Homo sapiens, UniProt P40763); assay: STAT3/pY-peptide binding surface plasmon resonance (SPR) assay; conditions: STAT3 200 nM, EGFR pY1068 dodecapeptide; mean, n ≥ 2; read-out: pY-Peptide Binding (SPR) IC50
Procedure: The equilibrium binding levels obtained ± compound were normalized (resonance obtained in the presence of compound ÷ the resonance obtained in the absence of compound × 100) and plotted against Log [nM] […] B. Inhibition of ligand-stimulated STAT phosphorylation, measured by phosphoflow. Serum-starved (1 hour) Kasumi-1 cells, pre-incubated with compound/DMSO (1 hour), were treated with G-CSF (10 ng/ml, 15 min, left two panels) or IFN-γ (10ng/ml, 15 min, right panel). Cells were permeabilized and stained with Alexa647-pSTAT3, and PE-pSTAT1 antibodies and analyzed on BD LSR2. FCS files were uploaded to Cytobank for pSTAT3 and pSTAT1 quantitation. Histograms depicting pSTAT3 and pSTAT1 levels are shown. C. Mean fluorescence (pSTAT3/1) levels were plotted as function the Log [M] compound, and IC50 calculated using GraphPad. […] D. Inhibition of ligand-stimulated STAT phosphorylation, measured by Luminex. Serum-starved (1 hour) Kasumi-1 cells, pre-incubated with compound/DMSO (0/0.1/0.3/1/3/10/100 μM, 1 hour), were treated with G-CSF (10 ng/ml, 15′). Total protein extracts of cells were assayed for pSTAT3, pSTAT1, and GAPDH levels by Luminex. GAPDH-normalized pSTAT3 or pSTAT1 values were divided by this ratio for untreated cells and expressed in percentage. These values were plotted as a function of Log [M] compound, and IC50 values calculated using GraphPad. […]
3-D pharmacophore sorting used to evaluate the effect of each compound on STAT3 binding. Responses were normalized by dividing the […]
fingerprint screening were converted into 3-D structures compounds at 2 min and multiplying by 100. IC values […]
for analysis as described below. were determined by plotting % maximum response as a 3-D pharmacophore generation function of log concentration of compound and fitting the Each molecular chemical feature, including experimental points to a competitive binding model using hydrogen bond donor, hydrogen bond acceptor, positive a four parameter logistic equation: R = Rhigh − (Rhigh − R low)/ (1 + conc/A1)^A2, where R = percent response at and negative ionizable group, and hydrophobic region, inhibitor concentration, R = percent response with no was generated using the LigandScout application compound, R= percent response at highest compound high framework and projected into 3-D space. concentration, A2 = fitting parameter (slope) and A1 = low Feature-pairing IC50 (BIAevaluation Software version 4.1). The inhibition Each chemical feature was converted into distance constant (Ki) was derived from the Cheng-Prusoff bin and the complete set of distance bins used to construct equation Ki=IC50/(1+[C]/Kd) as used by Halling et al a cost matrix. The most favorable pairing based on cost where C stands for STAT3 concentration used in the SPR matrix was identified. assay and Kd denotes the dissociation constant for STAT3 3-D pharmacophore transformation binding to its phosphorylated EGFR ligand in the SPR […]
STAT3/pY-peptide binding assay and total protein extracted from cell pellets. […]
STAT3 binding assays were performed at 25 °C (Millipore, Danvers, MA) coupled to antibody against

pSTAT3 (Tyr-705) = molecular target: T2, pSTAT3 (Tyr-705) (Homo sapiens, UniProt P40763); assay: Phosphoflow, G-CSF-induced STAT3 phosphorylation in Kasumi-1 cells; assay type: cell-based; conditions: Kasumi-1, G-CSF 10 ng/ml 15 min; mean, n ≥ 2; read-out: Ligand Induced Phosphorylation (Phosphoflow) pSTAT3 (GCSF) IC50
T2 construct: endogenous in cells; host or cells: Kasumi-1
T2 sequence (P40763 whole entry): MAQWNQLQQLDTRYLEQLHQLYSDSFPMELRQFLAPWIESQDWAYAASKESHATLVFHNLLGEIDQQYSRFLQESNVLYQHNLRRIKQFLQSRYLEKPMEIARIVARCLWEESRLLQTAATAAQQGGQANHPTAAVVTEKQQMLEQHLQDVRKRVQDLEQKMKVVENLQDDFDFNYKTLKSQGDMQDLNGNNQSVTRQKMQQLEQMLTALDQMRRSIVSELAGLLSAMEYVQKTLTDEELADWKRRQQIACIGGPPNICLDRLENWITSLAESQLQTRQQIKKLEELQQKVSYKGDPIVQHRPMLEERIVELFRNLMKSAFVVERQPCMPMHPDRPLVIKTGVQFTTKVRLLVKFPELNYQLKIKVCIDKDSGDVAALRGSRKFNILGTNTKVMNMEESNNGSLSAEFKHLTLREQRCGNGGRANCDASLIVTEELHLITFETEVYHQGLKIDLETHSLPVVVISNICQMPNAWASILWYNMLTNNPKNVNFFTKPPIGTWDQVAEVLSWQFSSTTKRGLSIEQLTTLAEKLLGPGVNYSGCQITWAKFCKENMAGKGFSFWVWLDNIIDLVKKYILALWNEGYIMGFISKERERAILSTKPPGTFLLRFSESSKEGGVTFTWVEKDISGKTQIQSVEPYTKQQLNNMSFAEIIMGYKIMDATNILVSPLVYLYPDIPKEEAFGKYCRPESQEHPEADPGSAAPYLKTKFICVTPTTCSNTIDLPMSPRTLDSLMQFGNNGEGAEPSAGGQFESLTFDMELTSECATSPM
Procedure: (§1) The equilibrium binding levels obtained ± compound were normalized (resonance obtained in the presence of compound ÷ the resonance obtained in the absence of compound × 100) and plotted against Log [nM] […] B. Inhibition of ligand-stimulated STAT phosphorylation, measured by phosphoflow. Serum-starved (1 hour) Kasumi-1 cells, pre-incubated with compound/DMSO (1 hour), were treated with G-CSF (10 ng/ml, 15 min, left two panels) or IFN-γ (10ng/ml, 15 min, right panel). Cells were permeabilized and stained with Alexa647-pSTAT3, and PE-pSTAT1 antibodies and analyzed on BD LSR2. FCS files were uploaded to Cytobank for pSTAT3 and pSTAT1 quantitation. Histograms depicting pSTAT3 and pSTAT1 levels are shown. C. Mean fluorescence (pSTAT3/1) levels were plotted as function the Log [M] compound, and IC50 calculated using GraphPad. […] D. Inhibition of ligand-stimulated STAT phosphorylation, measured by Luminex. Serum-starved (1 hour) Kasumi-1 cells, pre-incubated with compound/DMSO (0/0.1/0.3/1/3/10/100 μM, 1 hour), were treated with G-CSF (10 ng/ml, 15′). Total protein extracts of cells were assayed for pSTAT3, pSTAT1, and GAPDH levels by Luminex. GAPDH-normalized pSTAT3 or pSTAT1 values were divided by this ratio for untreated cells and expressed in percentage. These values were plotted as a function of Log [M] compound, and IC50 values calculated using GraphPad.
(§2) Phosphoflow analysis was done as described in Xu et al. Briefly, Kasumi-1 cells, were serum-starved, pre-treated with compound or DMSO (1 hour, RT) and then stimulated with 20 μl of GCSF (10 ng/ml) for 15 minutes at 37°C. The cells were then permeabilized and stained with Alexa647-pSTAT3, Alexa488-pSTAT5 and PE-pSTAT1 antibodies and analyzed using the BD LSR2. FCS files were exported and uploaded to Cytobank for determination of phosphoproteins as earlier. Gating was done on live, single cells and then gates selected for positive ligand-activated pSTAT3 and pSTAT1. IC50 values were calculated using the GraphPad Prism.

pSTAT5 = assay: Phosphoflow, G-CSF-induced pSTAT5 in Kasumi-1 cells; assay type: cell-based; conditions: mean, n ≥ 2, read-out: Ligand Induced Phosphorylation (Phosphoflow) pSTAT5 (G-CSF) IC50
Procedure: as §2

pSTAT1 (Tyr-701) = molecular target: T3, pSTAT1 (Tyr-701) (Homo sapiens, UniProt P42224); assay: Phosphoflow, IFN-γ-induced pSTAT1 in Kasumi-1 cells; assay type: cell-based; conditions: Kasumi-1, IFN-γ 10 ng/ml 15 min; mean, n ≥ 2; read-out: Ligand Induced Phosphorylation (Phosphoflow) pSTAT1 (IFN-γ) IC50
T3 construct: endogenous in cells; host or cells: Kasumi-1
T3 sequence (P42224 1-750): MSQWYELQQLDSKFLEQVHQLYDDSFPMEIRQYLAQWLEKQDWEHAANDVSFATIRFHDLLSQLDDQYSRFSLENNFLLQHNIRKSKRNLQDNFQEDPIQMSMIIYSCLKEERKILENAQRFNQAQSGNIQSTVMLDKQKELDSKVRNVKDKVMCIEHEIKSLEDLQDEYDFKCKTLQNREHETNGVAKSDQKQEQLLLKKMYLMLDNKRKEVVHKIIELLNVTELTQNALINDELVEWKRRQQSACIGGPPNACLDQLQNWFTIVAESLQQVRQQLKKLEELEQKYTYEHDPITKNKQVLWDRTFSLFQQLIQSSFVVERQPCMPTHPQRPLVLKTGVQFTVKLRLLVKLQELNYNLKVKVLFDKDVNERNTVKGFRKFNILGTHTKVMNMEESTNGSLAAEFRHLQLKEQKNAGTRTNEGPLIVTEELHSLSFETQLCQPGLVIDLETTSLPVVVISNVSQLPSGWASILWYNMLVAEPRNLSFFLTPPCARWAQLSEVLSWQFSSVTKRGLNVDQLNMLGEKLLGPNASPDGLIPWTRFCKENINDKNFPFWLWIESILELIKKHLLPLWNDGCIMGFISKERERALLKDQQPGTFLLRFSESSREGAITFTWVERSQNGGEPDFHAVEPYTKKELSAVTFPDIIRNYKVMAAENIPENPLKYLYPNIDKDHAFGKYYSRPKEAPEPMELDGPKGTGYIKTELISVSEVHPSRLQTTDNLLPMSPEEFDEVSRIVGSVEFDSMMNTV
Procedure: as §1, §2

tumor cells = conditions: read-out: IC50 killing of tumor cells; cited from earlier work
STAT3 [2] = molecular target: T1, STAT3; design: method as in PMID 24308725; conditions: read-out: IC50 inhibition of STAT3 in a luciferase reporter assay; cited from earlier work
STAT3 [3] = molecular target: T1, STAT3; design: method as in PMID 17114005; conditions: read-out: IC50 inhibition of STAT3 binding to pY-peptide; cited from earlier work
pSTAT3 = conditions: read-out: IC50 inhibition of cytokine-induced pSTAT3 levels; cited from earlier work

T1 sequence (P40763 whole entry, species assumed): as the sequence (P40763 whole entry) above

SMILES | IC50 (STAT3 [1]) [µM] | IC50 (pSTAT3 (Tyr-705)) [µM] | IC50 (pSTAT5) [µM] | IC50 (pSTAT1 (Tyr-701)) [µM] | IC50 (tumor cells) [µM] | IC50 (STAT3 [2]) [µM] | IC50 (STAT3 [3]) [µM] | IC50 (pSTAT3) [µM]
Cc1ccc(S(=O)(=O)Nc2cc3sc(=O)oc3c3ccccc23)c(C)c1 [Compound C188-32] | 48 ± 19.8 | 7.5 ± 3.6 | > 300 | 3 | – | – | – | –
CC(C)(C)c1ccc(S(=O)(=O)Nc2cc3sc(=O)oc3c3ccccc23)cc1 [Compound C188-33] | 20 ± 4.2 | 7.9 ± 5.8 | 6 | 10 | – | – | – | –
Cc1cc(S(=O)(=O)Nc2cc3c4c(oc3c3ccccc23)CCCC4=O)ccc1Cl [Compound C188-34] | 13.5 ± 3.5 | > 300 | > 300 | > 300 | – | – | – | –
CC(C)(C)c1ccc(S(=O)(=O)Nc2cc3c4c(oc3c3ccccc23)CCCC4=O)cc1 [Compound C188-36] | 31.5 ± 7.8 | > 300 | > 300 | > 300 | – | – | – | –
CC(C)c1ccc(S(=O)(=O)Nc2cc3c4c(oc3c3ccccc23)CCCC4)cc1 [Compound C188-37] | 24.5 ± 6.4 | > 300 | > 300 | > 300 | – | – | – | –
O=S(=O)(Nc1ccc(O)c2ccccc12)c1cccc2cccnc12 [Compound C188-39] | > 300 | > 300 | > 300 | > 300 | – | – | – | –
NS(=O)(=O)c1cccc2c1C(=O)c1cccc(O)c1C2=O [LLL12] | – | – | – | – | ~5 | – | – | –
C[C@@H]1CC(=O)c2c(ccc3c2C(=O)c2cccc(O)c2C3=O)C1 [STA-21] | – | – | – | – | – | 12.2 to 18.7 | – | –
O=[N+]([O-])c1ccc2c(c1)S(=O)(=O)C=C2 [Stattic] | – | – | – | – | – | – | 5.1 | –
COC(=O)[C@H](Cc1cn(C)cn1)NC(=O)[C@@H](NC(=O)Nc1cc(C(F)(F)F)cc(C(F)(F)F)c1)C(C)C [XZH-5] | – | – | – | – | – | – | – | 20 to 30
